The values below come from patent publication US10774081B2, “Indolo substituted piperidine compound as estrogen receptor down-regulator” (LUOXIN PHARMACEUTICAL (SHANGHAI) CO., LTD., priority 2016, dated 2020).

The subject of one data set is MCF-7 cells. In words: MCF-7 Cell Proliferation Inhibition Assay. Type of data set: cell-based. To be noted: Homo sapiens, MCF7, 144 h, 6 days incubation, CellTiter-Glo, read-out: MCF-7 cell proliferation suppression. Here is the method:
(1) MCF-7 Cell Proliferation Inhibition Assay
Substrate RPMI 1640, fetal calf serum, reagent Promega CellTiter-Glo. MCF-7 cell lines were purchased from the European Cell Culture Collection (ECACC). Envision multi-lable analyzer (PerkinElmer).
MCF-7 cells were seeded in black 384-well plates, each of the well has 600 cells in […] of cell suspension. The cell plates were placed in a carbon dioxide incubator overnight.
The compound to be tested was diluted by 5 times for 10 concentrations with Epmotion, ie., dilution from 0.25 mmol to 1.28 nmol, and replicated. 198 μl Medium was added to the middle plate, and 2 μl of each well of the gradient diluted compound was transferred to the correspondent position on the middle plate, and then 20 μl of each well was transferred to the cell plate after mixing. Then the cell plate was incubated in a carbon dioxide incubator for 6 days.
25 μl Promega CellTiter-Glo reagent was added into each well of the cell plate, the cell plate was then incubated for 10 mins at room temperature to stabilize the luminescence signal. PerkinElmer Envision multi-label analyser was used for readings.
The original data is converted to the inhibition rate using the equation (Max−Ratio)/(Max−Min)*100%, the value of IC50 also can be obtained by the curve fitting with four parameters. (by 205 model in XLFIT5,iDBS)

Another data set addresses T1, estrogen receptor (Homo sapiens, UniProt P03372).
T1 construct: endogenous in cells; host or cells: MCF-7 (ECACC)
T1 sequence (P03372 1-595): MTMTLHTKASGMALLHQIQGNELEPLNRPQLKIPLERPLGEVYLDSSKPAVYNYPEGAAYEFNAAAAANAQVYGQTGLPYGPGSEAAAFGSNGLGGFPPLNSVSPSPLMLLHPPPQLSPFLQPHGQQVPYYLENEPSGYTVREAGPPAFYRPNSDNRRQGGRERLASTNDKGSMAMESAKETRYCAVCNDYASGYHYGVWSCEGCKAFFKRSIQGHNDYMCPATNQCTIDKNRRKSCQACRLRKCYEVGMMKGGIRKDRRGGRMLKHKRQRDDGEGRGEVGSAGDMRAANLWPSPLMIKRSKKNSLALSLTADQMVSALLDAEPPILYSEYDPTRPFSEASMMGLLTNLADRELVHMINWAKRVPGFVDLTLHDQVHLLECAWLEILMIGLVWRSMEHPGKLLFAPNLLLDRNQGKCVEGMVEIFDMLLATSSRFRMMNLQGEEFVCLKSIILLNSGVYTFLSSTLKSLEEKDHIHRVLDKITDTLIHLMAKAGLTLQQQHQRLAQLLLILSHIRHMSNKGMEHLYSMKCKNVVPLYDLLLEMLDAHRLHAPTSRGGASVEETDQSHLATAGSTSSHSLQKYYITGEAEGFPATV
The data set can be described thus: ER Degradation in MCF-7 Cell. Type of data set: cell-based. To be noted: MCF-7 cells, 20 hours incubation, ER antibody infrared fluorescence; read-out: MCF-7 ER degradation IC50 intracellular.

A short description of data set [1]: Tissue distribution evaluation of the drug (plasma and brain). The data set is classed as in vivo. The settings on record: mouse, mice, dosage 10 mpk, 21th day after administration, tissue collected near Tmax, read-out: Ratio of drug concentration Brain tissue/plasma. Here is the method: Experiment 2: Tissue Distribution Evaluation of the Drug
On the 21th day after administration, select randomly three mice from the drug-administrated group, and collect their plasma samples at different timing, the mice were euthanized near Tmax, and the tumor, brain and breast samples were collected.
The procedure of collecting the plasma and tissue samples are as follows:
Plasma: Blood (60 μl) was collected using a 1.5 ml EDTA-K2 anticoagulation tube, the plasma was obtained after immediately centrifugation at 7000 rpm, at 4° C. for 10 mins, then the plasma simple was stored at −80° C. for drug concentration determination.
Tissue: Brain was collected using a 5 ml cryotube and immediately quick froze in liquid nitrogen. After sampling, tissues were stored at −80° C. for drug concentration determination used for comparing the distribution.

For data set [2] the following is noted: in vivo; cited from earlier work.
The subject of a further data set is breast cancer. To be noted: intramuscularly administrated; cited from earlier work.

Experimental for estrogen receptor: Substrate RPMI 1640, fetal calf serum, PBS, 16% paraformaldehyde, Triton, confining liquid, estrogen receptor antibody, near0infrared goat anti-rabbit secondary antibody, DRAQ5 dye. The MCF-7 cell lines were purchased from the European Cell Culture Collection (ECACC). Odyssey infrared fluorescence scanning imaging system.
The MCF-7 cell was seeded in the black 384-well plate, each of the well has 3200 cells in 30 ml cell suspension. The cell plate were incubated in a carbon dioxide incubator for 4 days.
198 μl Medium was added into the middle plate and 2 μl each well of the gradient diluted compound was transferred to the correspond position on the middle plate, then the compound was transferred 20 μl per well after mixing to the cell plate. The cell plate was then incubated in a carbon dioxide incubator for 20 hours.
50 μl 8% Paraformaldehyde was added into each well of the cell plate, after incubation at room temperature for 30 min, the plate was washed by PBS twice, pat dried and 50 ul PBS containing 0.1% Triton was added, the plate was incubated at room temperature for 15 mins, then washed with PBS for 5 times, pat dried and 50 ul confining liquid was added and incubated at room temperature for 1 hour, pat dried and 50 ul confining liquid containing 0.1% estrogen receptor antibody was added and then left at 4° C. overnight. […]

As for `CC1Cc2c([nH]c3ccccc23)C(c2c(F)cc(OCCN3CC(CC#N)C3)cc2F)N1CC(F)(F)F` (stereo not shown) [(I)], in the data set on MCF-7 cells, the IC50 was 1.17 nM. In addition, the DC50 on estrogen receptor turned out to be 1.13 nM. Moreover, in data set [1], the Kp came out at 13.1.

Turning to `C[C@@H]1Cc2c([nH]c3ccccc23)[C@@H](c2c(F)cc(OCCN3CC(CF)C3)cc2F)N1CC(C)(C)F` [(II)], the Kp in data set [1] worked out at 5.8.

As for `C[C@]12CC[C@@H]3c4ccc(O)cc4C[C@@H](CCCCCCCCC[S+]([O-])CCCC(F)(F)C(F)(F)F)[C@H]3[C@@H]1CC[C@@H]2O` (stereo partly shown) [Fulvestrant], in the data set on MCF-7 cells, the IC50 was determined as 1.77 nM. The oral bioavailability result in data set [2] is “zero”. Moreover, the “breast cancer patients showing clinical response” value with breast cancer was 50%.
